Like-named read-outs stand apart in the source and are kept apart here.
Legend:
Ph-ALL3.1 cells [1] = test: Release of elutriated S phase cells, FACS and 3H-thymidine incorporation; format: cell-based, human
Method: FIG. 5. […] Ph-ALL3.1 cells were subjected to standard centrifugal elutriation conditions and the S phase fraction, as determined by FACS analysis, was released into granaticin A (1 μM) or vehicle control (DMSO) for the indicated times and FACS analysis was performed. […] Apoptosis was confirmed in additional independent experiments. Asynchronous and time zero correspond to an asynchronous cell sample and the elutriated S phase fraction prior to release, respectively.
FIG. 6. Thymidine incorporation in S-phase: ^3H-Thymidine incorporation during the release experiment outlined in the slide above. Cell samples post-release into granaticin A or vehicle control (DMSO) were pulsed for 2 hours with ^3H-thymidine, and samples were collected, washed, and acid precipitable counts were measured by scintillation counting. X-axis is time post-release into compound or control (in hours) and y-axis is counts per minute (CPM).

Ph-ALL3.1 cells [2] = test: Release of elutriated G1 phase cells, 3H-thymidine incorporation and FACS; format: cell-based, human; set-up: dose or concentration left out as unconfirmed; details: G1 phase fraction released into granaticin A
Method: FIG. 2. Elutriation profile of PhALL3.1: Centrifugal elutriation was used to synchronize the recently established Philadelphia chromosome positive acute lymphoblastic leukemia cell line (PhALL3.1). An asynchronous culture (4 liters) was pelleted, resuspended in a small volume (20 ml), and loaded into the elutriation rotor as outlined by the manufacturer (Beckman). After equilibration and washing, cell samples were eluted from the rotor based on size with the smaller cells exiting the rotor first. Ten fractions (250 ml) were taken across the gradient and standard FACS analysis performed on 10 ml of each fraction looking at DNA content. G1, S, and G2 phase cell populations are indicated in the asynchronous profile. This method allows for isolation of phase specific cell populations.
FIG. 3. […] Ph-ALL3.1 cells were subjected to standard centrifugal elutriation conditions and the G1 phase fraction, as determined by FACS analysis (Time Zero), was released into granaticin A ([…]) or vehicle control (DMSO) for the indicated times. Cell samples post-release into granaticin A or vehicle control (DMSO) were pulsed for 2 hours with ^3H-thymidine and samples were collected, washed, and acid precipitable counts were measured by scintillation counting. X-axis is time post-release into compound or control (in hours) and y-axis is counts per minute (CPM). […]

PhALL3.1 cells = test: Caspase 3 fluorometric activity assay in G1 synchronized cells; format: cell-based, human; details: 10 hours following release of G1 synchronized cells
HeLa cells = test: Caspase-3 activity in HeLa cells; format: cell-based, human; details: rescued by Bcl-XL overexpression and 10 micromolar Ac-DEVD-CHO
Method: FIGS. 12-14. Inhibition of Granaticin A Induced Caspase-3 Activity in HeLa cells. Growth curves in the presence of the indicated micromolar concentrations of granaticin A were performed and caspase-3 activity was measured following addition of a substrate that when cleaved by caspase-3 results in light emission which is quantitated by a fluorimeter (y-axis) as a function of time (x-axis).

[3] = Liver microsome stability test; format: in vitro ADME
Method: The stability of granaticin A was determined in mouse and human liver microsomes.

PhALL3.1 [4] = test: SCID-Beige mouse intraperitoneal tumor model of PhALL3.1; format: in vivo
Method: FIGS. 19A-19B. Granaticin A Inhibits growth of PhALL3. 1 in vivo: Using a SCID-Beige mouse intraperitoneal tumor model of PhALL3.1, mice were intraperitoneally treated with vehicle control (DMSO) or the indicated doses of granaticin A on days 3, 6, 9, and 12. Day 16 in vivo bioluminescence imaging (FIG. 19A) and quantitation of tumor volume are shown (FIG. 19B) and indicate 90% reduction in tumor volume by Day 16 in mice treated at the highest dose (3.0 mg/kg).

Mcm2 phosphorylation = test: Western blotting of Mcm2 after S phase release; format: cell-based, human; details: PhALL3.1 cells, as early as 2 hours post release
From the text: FIG. 7. Granaticin A Inhibits Mcm2 phosphorylation: Following synchronization in S phase and release, PhALL3.1 cells from the experiments of FIG. 5 and FIG. 6 were collected at the indicated times post release into either control (DMSO) or granaticin A and extracts were subjected to Western blotting to detect total Mcm2 protein.

SKMEL-28 = test: Nude mouse xenograft, melanoma; format: in vivo; details: 2.5 mg/kg/day continuous, osmotic diffusion pumps; sections at day 28
Method: (§1) FIG. 22A-22C. Granaticin B is Effective Against Multiple Solid Tumors: granaticin B is efficacious against mouse models of melanoma (FIG. 22A), non-small cell lung cancer (FIG. 22B), and ovarian cancer (FIG. 22C). For the ovarian cancer experiments, SCID-Beige mice were injected with 5 million OVCAR3 cells that had been transduced with a GFP-firefly luciferase expressing plasmid (Frattini, M. G. and Brentjens, R. J., unpublished data). These cells were then injected intraperitoneally into 4 cohorts of mice on Day 1. From days 7-14 the mice were injected daily with the indicated concentrations of granaticin B in the intraperitoneal space. […] Nude mice were treated with 2.5 mg/kg/day granaticin B in a continuous fashion using osmotic diffusion pumps. Sections of the treated xenografts are shown after euthanasia at day 28 and H&E staining.

JOKE-2 cells = test: Trypan blue viability and caspase-3 assay; format: cell-based, human; details: 1 microM
Method: FIGS. 24A-24B. […] The JOKE-2 cell line was derived from a patient with Philadelphia chromosome positive Acute Lymphoblastic Leukemia (Ph-ALL). […] FIG. 24A: Joke-2 cells were grown in the presence of DMSO control or granaticin B (1 microM) for the indicated times and viability was measured after staining a cell sample in trypan blue (Sigma-Aldrich).

PhALL3.1 [5] = format: in vivo
From the text: FIGS. 20A-20C. Granaticin B Inhibits Ph-ALL3. 1 growth in vivo: Given the rapid intravenous clearance of granaticin A by the liver, granaticin B was used in a continuous infusion experiment with the PhALL3.1 animal model. Diffusion pumps containing granaticin B were surgically implanted in the flanks of 5 cohorts of mice on day +3 after injection of 5 million cells via the tail veins, and the drug (or control—C-DMSO) at the indicated concentration was allowed to diffuse for seven days before pump removal. The mice were imaged on day 12 (FIGS. 20A-20B) and tumor volume remaining was calculated (FIG. 20C).

A459 cells = test: Nude mouse xenograft, non small-cell lung cancer; format: in vivo; details: 2.5 mg/kg/day continuous, osmotic diffusion pumps; sections at day 28
Method: as §1

Compound	cell cycle profile by FACS (Ph-ALL3.1 cells [1]; S phase fraction released into 1 μM)	3H-thymidine incorporation (Ph-ALL3.1 cells [1]; S phase fraction, 2 hours pulses post-release)	3H-thymidine incorporation (Ph-ALL3.1 cells [2])	cell cycle profile (Ph-ALL3.1 cells [2])	caspase 3 activity / apoptosis (PhALL3.1 cells)	caspase-3 activity (HeLa cells)	recovery at 30 min ([3]; human liver microsomes)	recovery at 60 min ([3]; human liver microsomes)	recovery at 30 min ([3]; mouse liver microsomes)	recovery at 60 min ([3]; mouse liver microsomes)	organ toxicity at necropsy (PhALL3.1 [4]; all mice examined at each dose level)	reduction in tumor volume (PhALL3.1 [4]; highest dose 3.0 mg/kg intraperitoneally on days 3, 6, 9, 12, Day 16 bioluminescence imaging)	Mcm2 phosphorylation in cells (Mcm2 phosphorylation)	efficacy in mouse model of melanoma (SKMEL-28)	caspase-3 activation (JOKE-2 cells)	effect on viability (trypan blue) (JOKE-2 cells)	tumor reduction (PhALL3.1 [5]; highest dose, diffusion pump for seven days from day +3, imaged on day 12)	organ toxicity at necropsy (PhALL3.1 [5]; mouse, in vivo)	efficacy in mouse model of non-small cell lung cancer (A459 cells)
CC1OC2CC(O)C1(O)c1c(O)c3c(c(O)c12)C(=O)C1=C(C3=O)[C@H](C)O[C@H]2CC(=O)O[C@@H]12 (stereo partly shown) [Granaticin A, granaticin A]	cell cycle arrest and apoptosis	markedly reduced incorporation	stop incorporating ^3H-thymidine	G1 phase arrest	induces Caspase 3-mediated apoptosis	activation of caspase-3 and apoptosis	23.9%	12%	3.68%	3.84%	no significant (grade 2 or higher) organ toxicity	90%	inhibition of Mcm2 phosphorylation	–	–	–	–	–	–
CC1OC2CC(O[C@H]3CC[C@H](O)[C@H](C)O3)C1(O)c1c(O)c3c(c(O)c12)C(=O)C1=C(C3=O)[C@H](C)O[C@H]2CC(=O)O[C@@H]12 (stereo partly shown) [Granaticin B, granaticin B]	–	–	–	–	–	–	–	–	–	–	–	–	–	efficacious	only activated in cells exposed to granaticin B	very effective	95%	without obvious organ toxicity	efficacious

Source: US20210283099A1, “CDC7 KINASE INHIBITORS AND USES THEREOF” (SLOAN-KETTERING INSTITUTE FOR CANCER RESEARCH, priority 2010, published 2021)
